Measured values taken from article PMC9217576, “Urease and α-Chymotrypsin Inhibitory Activities and Molecular Docking Studies of Alkaloids Isolated from Medicinal Plant Isatis minima Bunge” (Evidence-based Complementary and Alternative Medicine : eCAM, 2022).
Read-outs that look alike come from different tables or passages of the source.

Assays:
Format in all cases: biochemical
α-chymotrypsin = α-chymotrypsin (Bos taurus, UniProt P00766); test: In vitro chymotrypsin inhibition assay; details: for IC50: SEM of five determinations, Tris-HCl pH 7.6, 25°C
Jack bean urease = Jack bean urease (Canavalia ensiformis, UniProt P07374); test: biochemical; details: for IC50: SEM of five determinations, pH 6.8, 30°C
[1] = biological target: Bacillus pasteurii urease (Sporosarcina pasteurii, UniProt P41020); test: In vitro urease inhibition assay (indophenol method); details: for IC50: SEM of five determinations, pH 6.8, 30°C
[2] = Urease IC50 ± SEM (Jack bean urease)
[3] = read-out: Urease IC50 ± SEM (Bacillus pasteurii urease)
[4] = Urease IC50 ± SEM (Bacillus pasteurii urease)

Chain of Bacillus pasteurii urease (P41022 whole entry): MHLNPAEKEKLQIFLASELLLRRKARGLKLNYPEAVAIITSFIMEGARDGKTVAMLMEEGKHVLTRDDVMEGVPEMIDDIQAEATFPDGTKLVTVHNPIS
Chain of Bacillus pasteurii urease (P41020 whole entry): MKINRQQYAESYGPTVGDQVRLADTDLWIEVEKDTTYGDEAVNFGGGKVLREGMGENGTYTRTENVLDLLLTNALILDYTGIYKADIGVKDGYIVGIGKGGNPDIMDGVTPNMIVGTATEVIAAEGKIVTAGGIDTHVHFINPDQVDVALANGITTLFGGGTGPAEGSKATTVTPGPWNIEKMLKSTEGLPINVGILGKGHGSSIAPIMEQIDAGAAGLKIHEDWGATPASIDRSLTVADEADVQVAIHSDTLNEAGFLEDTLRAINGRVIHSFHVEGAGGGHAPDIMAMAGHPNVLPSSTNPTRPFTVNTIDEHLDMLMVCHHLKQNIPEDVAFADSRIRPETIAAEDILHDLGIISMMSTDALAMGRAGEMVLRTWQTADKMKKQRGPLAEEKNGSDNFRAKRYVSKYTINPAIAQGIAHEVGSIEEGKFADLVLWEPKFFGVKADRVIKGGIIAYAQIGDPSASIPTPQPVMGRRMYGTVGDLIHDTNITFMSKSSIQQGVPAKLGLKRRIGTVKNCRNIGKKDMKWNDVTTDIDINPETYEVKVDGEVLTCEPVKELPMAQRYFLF
Chain of Bacillus pasteurii urease (P41021 whole entry, further chain): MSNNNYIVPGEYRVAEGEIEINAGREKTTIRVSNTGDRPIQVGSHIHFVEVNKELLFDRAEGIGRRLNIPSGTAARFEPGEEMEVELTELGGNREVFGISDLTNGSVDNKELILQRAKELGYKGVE
Chain of Jack bean urease (P07374 whole entry, looked up): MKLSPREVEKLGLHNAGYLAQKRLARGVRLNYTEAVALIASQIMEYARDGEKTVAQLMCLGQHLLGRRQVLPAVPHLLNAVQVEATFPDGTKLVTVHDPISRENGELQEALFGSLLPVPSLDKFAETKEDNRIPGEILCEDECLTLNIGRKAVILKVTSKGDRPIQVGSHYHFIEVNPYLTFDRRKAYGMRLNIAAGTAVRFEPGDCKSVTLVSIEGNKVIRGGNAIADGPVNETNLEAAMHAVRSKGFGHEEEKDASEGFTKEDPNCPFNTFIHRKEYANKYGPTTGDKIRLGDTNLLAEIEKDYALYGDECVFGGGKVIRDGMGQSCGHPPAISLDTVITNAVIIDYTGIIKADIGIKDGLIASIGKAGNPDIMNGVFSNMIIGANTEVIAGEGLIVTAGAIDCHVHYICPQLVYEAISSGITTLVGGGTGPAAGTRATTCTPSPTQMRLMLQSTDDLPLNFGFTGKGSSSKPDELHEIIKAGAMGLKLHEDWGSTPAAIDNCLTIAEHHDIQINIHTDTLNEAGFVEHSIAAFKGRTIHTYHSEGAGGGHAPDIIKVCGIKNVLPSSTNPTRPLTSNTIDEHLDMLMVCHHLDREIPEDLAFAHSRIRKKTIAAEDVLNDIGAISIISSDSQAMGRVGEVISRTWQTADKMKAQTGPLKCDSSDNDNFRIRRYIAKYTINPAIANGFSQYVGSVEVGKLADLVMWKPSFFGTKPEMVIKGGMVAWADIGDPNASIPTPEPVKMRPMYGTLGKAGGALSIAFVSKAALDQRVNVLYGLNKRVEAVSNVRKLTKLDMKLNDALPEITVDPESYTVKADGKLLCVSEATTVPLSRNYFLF

SMILES | IC50 (α-chymotrypsin) [µM] | IC50 (Jack bean urease; [2]) [µM] | IC50 [1, 3] [µM] | IC50 [1, 4] [µM] | inhibitory potential against α-chymotrypsin (in words) (α-chymotrypsin) | inhibitory activity against Bacillus pasteurii urease (in words) [1] | IC50 (Jack bean urease; read-out: Urease IC50 ± SEM (Jack bean urease)) [µM] | inhibitory activity against Jack bean urease (in words) (Jack bean urease)
COc1cc(/C=C2\CCn3c2nc2ccccc2c3=O)cc(OC)c1O [Isaindigotone] | 22.01 ± 0.06 | 34.03 ± 0.07 | 26.13 ± 0.08 | 29.03 ± 0.04 |  |  |  | 
O=C1/C(=c2\c3ccccc3n3c(=O)c4ccccc4nc23)Nc2ccccc21 [Candidine] | 44.07 ± 0.04 |  |  | 46.12 ± 0.05 | moderate inhibitory potential | significant inhibitory activity |  | 
COc1cc(C2c3c(c4ccccc4[nH]c3=O)C(=O)N3CCCC23)cc(OC)c1O (stereo not shown) [Isaindigotidione] | 16.09 ± 0.07 | 29.03 ± 0.04 | 20.04 ± 0.09 |  |  |  |  | 
NC(N)=S [Thiourea, reference compound] |  |  | 14.03 ± 0.08 |  |  |  | 18.04 ± 0.01 | 
O=C1C(c2[nH]c3ccccc3c2C2=c3ccccc3=N/C2=C2\Nc3ccccc3C2=O)=Nc2ccccc21 [Bisindigotin] | 34.01 ± 0.07 | 58.15 ± 0.02 | 42.04 ± 0.07 |  | moderate inhibitory potential | significant inhibitory activity |  | significant inhibitory activity
